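Cultured in 96-well plates, cells were exposed to test compound for 48 hours across five concentrations. GI50 marks 50% less growth. The concentration for full growth arrest is given as TGI.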
Experiments:
Assay in all cases: NCI tumour cell line growth inhibition, 48 h
[1] = test system: NCI-H23 lung
[2] = test system: NCI-H460 lung
[3] = test system: NCI-H522 lung
[4] = test system: NCI/ADR-RES ovarian
[5] = test system: OVCAR-3 ovarian
[6] = test system: OVCAR-4 ovarian
[7] = test system: OVCAR-5 ovarian
[8] = test system: OVCAR-8 ovarian
[9] = test system: PC-3 prostate
[10] = test system: RPMI-8226 leukemia
[11] = test system: RXF 393 renal
[12] = test system: SF-268 CNS
[13] = test system: SF-295 CNS
[14] = test system: SF-539 CNS
[15] = test system: SK-MEL-2 melanoma
[16] = test system: SK-MEL-28 melanoma
[17] = test system: SK-MEL-5 melanoma
[18] = test system: SK-OV-3 ovarian
[19] = test system: SN12C renal
[20] = test system: SNB-19 CNS
[21] = test system: SNB-75 CNS
[22] = test system: SR leukemia
[23] = test system: SW-620 colon
[24] = test system: T-47D breast
[25] = test system: TK-10 renal
[26] = test system: U251 CNS
[27] = test system: UACC-257 melanoma
[28] = test system: UACC-62 melanoma
[29] = test system: UO-31 renal

## O=C(N/N=C/c1ccco1)c1[nH]c2ccc(Br)cc2c1-c1ccccc1
[1]
  TGI: 14200 nM
[2]
  GI50: 147 nM
  TGI: 1700 nM
[3]
  GI50: 42.5 nM
  TGI: 225 nM
[4]
  GI50: 187 nM
  TGI: 2800 nM
[5]
  GI50: 281 nM
  TGI: 14900 nM
[6]
  GI50: 988 nM
  TGI: 26200 nM
[7]
  GI50: 320 nM
  TGI: 17600 nM
[8]
  GI50: 162 nM
  TGI: 3230 nM
[9]
  GI50: 309 nM
  TGI: 15900 nM
[10]
  GI50: 200 nM
  TGI: > 26900 nM
[11]
  GI50: 348 nM
  TGI: 16900 nM
[12]
  GI50: 975 nM
  TGI: 27900 nM
[13]
  GI50: 46.4 nM
  TGI: 11100 nM
[14]
  GI50: 91 nM
  TGI: 482 nM
[15]
  GI50: 302 nM
  TGI: 22400 nM
[16]
  GI50: 735 nM
  TGI: 21100 nM
[17]
  GI50: 133 nM
  TGI: 644 nM
[18]
  GI50: 403 nM
  TGI: 16900 nM
[19]
  GI50: 201 nM
  TGI: 4530 nM
[20]
  GI50: 252 nM
  TGI: 14700 nM
[21]
  GI50: 177 nM
  TGI: 5770 nM
[22]
  GI50: 52.7 nM
  TGI: 5100 nM
[23]
  GI50: 105 nM
  TGI: 17300 nM
[24]
  GI50: 1410 nM
  TGI: 26900 nM
[25]
  GI50: 1610 nM
  TGI: 18000 nM
[26]
  GI50: 192 nM
  TGI: 11800 nM
[27]
  GI50: 437 nM
  TGI: 17300 nM
[28]
  GI50: 72.4 nM
  TGI: 13600 nM
[29]
  GI50: 267 nM
  TGI: 15400 nM
